Here are results for 1 molecule from patent publication US8598342B2, “Methods and compounds for antimicrobial intervention” (President and Fellows of Harvard College, priority 2008, dated 2013).

Experiment [1] addresses T1, S. aureus TarJ (Staphylococcus aureus, UniProt Q2G1B9).
T1 sequence (Q2G1B9 1-341): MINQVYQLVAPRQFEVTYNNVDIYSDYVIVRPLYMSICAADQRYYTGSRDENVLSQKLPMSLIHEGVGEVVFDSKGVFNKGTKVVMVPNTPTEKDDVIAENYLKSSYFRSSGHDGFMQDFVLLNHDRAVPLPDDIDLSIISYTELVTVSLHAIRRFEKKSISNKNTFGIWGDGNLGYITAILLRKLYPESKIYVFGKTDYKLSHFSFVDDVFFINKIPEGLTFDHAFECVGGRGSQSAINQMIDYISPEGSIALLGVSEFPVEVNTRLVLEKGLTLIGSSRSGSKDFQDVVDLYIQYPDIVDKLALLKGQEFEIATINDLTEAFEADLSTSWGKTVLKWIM
Briefly: In vitro enzyme inhibition assay, TarJ. It counts as biochemical. The settings on record: targocil 50 μg/mL.

Experiment [2] addresses T2, S. aureus TarF (Staphylococcus aureus, UniProt Q2G1C1).
T2 construct: made in house
T2 sequence (Q2G1C1 1-389): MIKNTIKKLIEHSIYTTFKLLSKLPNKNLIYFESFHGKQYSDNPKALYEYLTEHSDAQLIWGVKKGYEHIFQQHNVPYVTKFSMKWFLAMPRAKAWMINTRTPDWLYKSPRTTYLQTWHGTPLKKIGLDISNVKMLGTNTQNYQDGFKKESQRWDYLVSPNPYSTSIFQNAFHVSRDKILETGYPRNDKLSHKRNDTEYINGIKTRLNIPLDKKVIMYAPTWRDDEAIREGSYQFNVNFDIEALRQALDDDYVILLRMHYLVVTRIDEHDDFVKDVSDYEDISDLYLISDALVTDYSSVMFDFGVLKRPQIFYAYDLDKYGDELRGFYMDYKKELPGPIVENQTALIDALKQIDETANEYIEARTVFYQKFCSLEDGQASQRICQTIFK
Briefly: In vitro enzyme inhibition assay, TarF (radiometric). It counts as biochemical. The settings on record: targocil 50 μg/mL; enzyme 200 nM. As to the method:
(§1) S. aureus TarB, D, F, I, and L were cloned, overexpressed and purified as described previously (S. Brown, Y. H. Zhang, S. Walker, Chemistry & Biology 15, 12, Jan. 2008.) Radiometric in vitro assays were run to test the inhibitory effects of targocil on Tar B, D, F, and L, while TarI was assayed for targocil inhibition using an HPLC assay using conditions similar to those previously reported (ibid). See below for exact reaction conditions. […] In each case, a reaction with no targocil served as a negative control (active enzymatic reaction) and a reaction with heat-treated enzyme served as a positive control (no enzymatic reaction). Targocil was incubated with all reaction components except the substrates at room temperature. After 10 minutes, substrates were added and the reactions were allowed to proceed for 60 minutes. The reactions were quenched with DMF and the products were imaged/monitored as previously described (ibid).
TarF in vitro inhibition assay protocol. Each 3 μL reaction contained 1 μM [14C]-GroP-ManNAc β-(1,4)-GlcNAc-pp-farnesyl, 3 μM [14C]-CDP-glycerol, 20 mM Tris base pH 7.5, 100 mM NaCl, 10 mM MgCl2, 200 nM TarF. The reactions were quenched and imaged as described above for TarB.

The target of experiment [3] is T3, S. aureus TarI (Staphylococcus aureus, UniProt Q2G1C0).
T3 construct: made in house
T3 sequence (Q2G1C0 1-238): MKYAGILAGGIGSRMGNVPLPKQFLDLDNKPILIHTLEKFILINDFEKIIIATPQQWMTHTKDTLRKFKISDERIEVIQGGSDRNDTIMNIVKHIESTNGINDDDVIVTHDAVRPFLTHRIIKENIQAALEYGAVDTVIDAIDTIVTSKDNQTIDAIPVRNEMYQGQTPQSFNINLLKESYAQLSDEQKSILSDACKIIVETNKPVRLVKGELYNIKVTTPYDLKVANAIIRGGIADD
Briefly: In vitro enzyme inhibition assay, TarI (HPLC). The experiment is classed as biochemical. The settings on record: targocil 50 μg/mL; enzyme 200 nM. As to the method: as §1
TarI in vitro inhibition assay protocol and data. […] The reactions were monitored by HPLC using an anion exchange column, Phenosphere 5μ SAX 250×4.6 mm, 5 μm (Phenomenex), to record the disappearance of the CTP peak and production of a new CDP ribitol peak (Buffer A: 5 mM NH4H2PO4, pH 2.8, Buffer B: 750 mM NH4H2PO4, pH 3.7, isocratic elution 75% B over 20 minutes, UV monitored at 271 nm).

Experiment [4] deals with IPTG-inducible tarO strain of S. aureus. Kind of experiment: Growth of the IPTG-inducible tarO strain as a function of targocil concentration. It counts as cell-based, Staphylococcus aureus. The text has this: (Top) Schematic of the IPTG-inducible tarO operon. […] Data were normalized to the DMSO controls for each strain.
The target of experiment [5] is T4, S. aureus TarB (Staphylococcus aureus, UniProt Q2G2X4).
T4 construct: made in house
T4 sequence (Q2G2X4 1-367): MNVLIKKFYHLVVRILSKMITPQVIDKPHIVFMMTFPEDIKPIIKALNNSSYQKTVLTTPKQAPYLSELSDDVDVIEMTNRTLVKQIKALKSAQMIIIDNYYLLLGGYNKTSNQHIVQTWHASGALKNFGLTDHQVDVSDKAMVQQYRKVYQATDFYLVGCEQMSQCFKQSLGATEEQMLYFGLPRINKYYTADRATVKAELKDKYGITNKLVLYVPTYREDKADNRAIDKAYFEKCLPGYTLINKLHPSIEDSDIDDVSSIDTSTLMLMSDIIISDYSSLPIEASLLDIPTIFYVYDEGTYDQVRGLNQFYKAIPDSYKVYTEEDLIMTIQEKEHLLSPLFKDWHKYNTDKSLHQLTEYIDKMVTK
Kind of experiment: In vitro enzyme inhibition assay, TarB (radiometric). The settings on record: targocil 50 μg/mL; enzyme 200 nM. The experiment is classed as biochemical. As to the method: as §1

Consider `CCN(CC)c1nc2c(S(=O)(=O)c3ccccc3)nnn2c2ccc(Cl)cc12` [7-chloro-N,N-diethyl-3-(phenylsulfonyl)-[1,2,3]triazolo[1,5-a]quinazolin-5-amine], for which, in experiment [1], the “inhibition of TarJ” value is reported as “None of these enzymes was inhibited”. The “inhibition of TarF” value in experiment [2] is reported as “None of these enzymes was inhibited”. The “inhibition of TarI” value in experiment [3] is listed as “None of these enzymes was inhibited”. Further, the “effect on cell growth, tarO not induced” value in experiment [4] (in the absence of IPTG) was “no effect”. Moreover, the “effect on cell growth, tarO induced” value in experiment [4] (in the presence of IPTG) is on record as “inhibited cell growth”. Besides, the “inhibition of TarB” value in experiment [5] is on record as “None of these enzymes was inhibited”.
